Patent US20230270723A1, “GLUCOKINASE ACTIVATOR FOR TREATING DIABETES WITH HEPATIC IMPAIRMENT” (HUA Medicine (Shanghai) Ltd., priority 2020, published 2023)
Where two headings read alike, the source gives them in different places.

How the values were obtained:
[1] = Phase I single oral dose pharmacokinetic study of dorzagliatin in subjects with mild or moderate hepatic impairment and healthy subjects (plasma, LC-MS/MS, non-compartmental); type: in vivo, human; conditions: for AUC(0-inf) / AUC(0-t) / Cmax / half-life / Vd/F / Tmax: both sexes, human, plasma, po, 25 mg; for Vd/F: read-out: Vz/F; for Tmax: median
Experimental: This phase I study is to access the pharmacokinetics and safety of a single dose of dorzagliatin in subjects with mild or moderate hepatic impairment, and heathy subjects. […] The eligible subjects of Groups A and B are matched closely with the healthy subjects of Group C as to their sexes, ages (±5 yrs), and BMIs (±15%).
on Day −2 or −1, eligible subjects are admitted to a clinical research center (CRC). […], the subjects have no additional food after a standard dinner for at least 10 h. In the morning of Day 1, the subjects each receive dorzagliatin (25 mg) orally with empty stomach. One hour later, the subjects have a standardized breakfast. Blood samples are collected at the following time points: within 60 min pre-dose; and at 0.25, 0.5, 1, 1.5, 2, 2.5, 3, 4, 6, 8, 12, 24, 36, 48, and 72 h post-dose. The samples are analyzed using LC-MS/MS. The plasma concentration-time data for dorzagliatin are analyzed using a non-compartmental model to obtain PK parameters, including Cmax, AUClast, and AUCinf. An ANOVA analysis is performed on the data between Group C and Groups A and B.
Study design: This study was designed to evaluate the PK and safety of a single oral dose of dorzagliatin 25 mg in subjects with hepatic impairment compared with matched healthy subjects using an open label, single-center, parallel study design. The study population (as shown in Table 1) consisted of subjects with mild (group A) and moderate (group B) hepatic impairment and healthy subjects (group C) matched for sex, mean age, and mean BMI. The number of subjects who completed the study in each group was not less than 8, both male and female, and no less than 3 subjects of a single sex in each group.
(§1) Eligible subjects were admitted to the Phase 1 study ward on either Day −2 or Day −1 to complete the baseline examination, and re-confirmed the inclusion/exclusion criteria by the investigator and fed a standardized meal after admission. Subjects were fasted at least 10 hours overnight while water was not deprived after the standardized dinner on Day −1, and received a single dose of dorzagliatin 25 mg (25 mg/tablet, 1 tablet) with 240 mL of warm water on the morning of Day 1. Subjects should start the standardized breakfast about 1 hour after administration and complete the meal within 30 minutes. Blood samples for PK and plasma protein binding (PPB) analyses were collected at specified time points within 1 hour pre-dose through 72 hours post-dose. The corresponding safety indicators at preset time points were detected for safety assessment.
(§2) Pharmacokinetic Evaluation • PK blood sampling time: Within 1 hour pre-dose and 0.25, 0.5, 1, 1.5, 2, 2.5, 3, 4, 6, 8, 12, 24, 36, 48 and 72 hours post-dose of dorzagliatin on Day 1. • PPB blood sampling time: Within 1 hour pre-dose and 1 hour post-dose of dorzagliatin. • Bioanalytical method: dorzagliatin in plasma was analyzed using a validated method of liquid chromatography-tandem mass spectrometry (LC-MS/MS). • PK parameters. Primary PK endpoint: Cmax, AUClast, AUCinf; Secondary PK endpoint (if applicable): Cmax,u, AUClast,u, AUCinf,u, Tmax, T1/2, CL/F, Vz/F, fu.

[2] = Plasma protein binding (PPB) analysis, free drug percentage (fu); type: in vitro ADME; conditions: human, oral, 25 mg
Experimental: as §1, §2

[3] = Safety evaluation (adverse events) after single oral dose of dorzagliatin 25 mg; type: in vivo, human
Experimental: Safety Evaluation • Physical examination: Evaluated at screening, baseline, Day 2, Day 3, discharge examination on Day 4. • Vital signs: Evaluated at screening, baseline, 24 and 48 hours post-dose, discharge examination on Day 4. • 12-lead ECG: Evaluated at screening, baseline, 24 hours and 48 hours post-dose, discharge examination on Day 4. Test once at each time point. • Hematology, blood biochemistry and urinalysis: Evaluated at screening, baseline, 24 hours, 48 hours and 72 hours post-dose. • Adverse events (AEs): All the subjects are observed for any AEs occurring from the signing of the ICF to the end of study. The clinical manifestations, severity, occurrence time, end time (if applicable), treatment measure, outcome and other information of each AE are recorded, and the correlation between an AE and the study drugs is judged.

[4] = single oral dose 25 mg, healthy group, arithmetic mean
[5] = single oral dose 25 mg, mild hepatic impairment group, arithmetic mean
[6] = single oral dose 25 mg, moderate hepatic impairment group, arithmetic mean
[7] = moderate hepatic impairment group

CC(C)C[C@@H](C(=O)Nc1ccn(C[C@@H](O)CO)n1)N1CC(Oc2ccccc2Cl)=CC1=O [dorzagliatin, (S)-2-(4-(2-chlorophenoxy)-2-oxo-2,5-dihydro-1H-pyrrol-1-yl)-N-(1-((R)-2,3-dihydroxypropyl)-1H-pyrazol-3-yl)-4-methylpentanamide]
AUC(0-inf) ([1]; free drug, single oral dose 25 mg, healthy group, arithmetic mean, read-out: AUCinf,u): 0.123 µg·h/mL | AUC(0-t) ([1]; free drug, single oral dose 25 mg, healthy group, arithmetic mean, read-out: AUClast,u): 0.122 µg·h/mL | AUC(0-inf) ([1]; free drug, single oral dose 25 mg, healthy group, read-out: AUCinf,u, geometric least squares mean): 0.119 µg·h/mL | AUC(0-t) ([1]; free drug, single oral dose 25 mg, healthy group, read-out: AUClast,u, geometric least squares mean): 0.118 µg·h/mL | AUC(0-inf) ([1]; free drug, single oral dose 25 mg, mild hepatic impairment group (N=7), arithmetic mean, read-out: AUCinf,u): 0.17 µg·h/mL | AUC(0-t) ([1]; free drug, single oral dose 25 mg, mild hepatic impairment group (N=7), arithmetic mean, read-out: AUClast,u): 0.169 µg·h/mL | AUC(0-inf) ([1]; free drug, single oral dose 25 mg, moderate hepatic impairment group, arithmetic mean, read-out: AUCinf,u): 0.287 µg·h/mL | AUC(0-t) ([1]; free drug, single oral dose 25 mg, moderate hepatic impairment group, arithmetic mean, read-out: AUClast,u): 0.284 µg·h/mL | AUC(0-inf) ([1]; free drug, single oral dose 25 mg, moderate hepatic impairment group, read-out: AUCinf,u, geometric least squares mean): 0.282 µg·h/mL | AUC(0-t) ([1]; free drug, single oral dose 25 mg, moderate hepatic impairment group, read-out: AUClast,u, geometric least squares mean): 0.28 µg·h/mL | Cmax ([1]; single oral dose 25 mg, fasted, healthy group, arithmetic mean, read-out: Cmax): 0.325 µg/mL | Cmax ([1]; single oral dose 25 mg, fasted, mild hepatic impairment group (Child-Pugh 5-6), arithmetic mean, read-out: Cmax): 0.382 µg/mL | Cmax ([1]; single oral dose 25 mg, fasted, moderate hepatic impairment group (Child-Pugh 7-9), arithmetic mean, read-out: Cmax): 0.37 µg/mL | half-life [1, 4]: 6.22 h | AUC(0-inf) ([1]; single oral dose 25 mg, healthy group, arithmetic mean, read-out: AUCinf): 1.91 µg·h/mL | AUC(0-t) ([1]; single oral dose 25 mg, healthy group, arithmetic mean, read-out: AUClast): 1.89 µg·h/mL | Vd/F [1, 4]: 122 L | Tmax ([1]; single oral dose 25 mg, healthy group): 1.75 h | AUC(0-inf) ([1]; single oral dose 25 mg, healthy group, read-out: AUCinf, geometric least squares mean): 1.87 µg·h/mL | AUC(0-t) ([1]; single oral dose 25 mg, healthy group, read-out: AUClast, geometric least squares mean): 1.84 µg·h/mL | Cmax ([1]; single oral dose 25 mg, healthy group, read-out: Cmax, geometric least squares mean): 0.307 µg/mL | half-life [1, 5]: 6.25 h | AUC(0-inf) ([1]; single oral dose 25 mg, mild hepatic impairment group, arithmetic mean, read-out: AUCinf): 2.26 µg·h/mL | AUC(0-t) ([1]; single oral dose 25 mg, mild hepatic impairment group, arithmetic mean, read-out: AUClast): 2.24 µg·h/mL | Vd/F [1, 5]: 106 L | Tmax ([1]; single oral dose 25 mg, mild hepatic impairment group): 1.5 h | AUC(0-inf) ([1]; single oral dose 25 mg, mild hepatic impairment group, read-out: AUCinf, geometric least squares mean): 2.19 µg·h/mL | AUC(0-t) ([1]; single oral dose 25 mg, mild hepatic impairment group, read-out: AUClast, geometric least squares mean): 2.17 µg·h/mL | Cmax ([1]; single oral dose 25 mg, mild hepatic impairment group, read-out: Cmax, geometric least squares mean): 0.37 µg/mL | half-life [1, 6]: 8.04 h | AUC(0-inf) ([1]; single oral dose 25 mg, moderate hepatic impairment group, arithmetic mean, read-out: AUCinf): 3.45 µg·h/mL | AUC(0-t) ([1]; single oral dose 25 mg, moderate hepatic impairment group, arithmetic mean, read-out: AUClast): 3.41 µg·h/mL | Vd/F [1, 6]: 85.2 L | AUC(0-t) ([1]; single oral dose 25 mg, moderate hepatic impairment group, mean, read-out: AUClast): 3.41 µg·h/mL | Tmax ([1]; single oral dose 25 mg, moderate hepatic impairment group): 1.5 h | AUC(0-inf) ([1]; single oral dose 25 mg, moderate hepatic impairment group, read-out: AUCinf, geometric least squares mean): 3.41 µg·h/mL | AUC(0-t) ([1]; single oral dose 25 mg, moderate hepatic impairment group, read-out: AUClast, geometric least squares mean): 3.37 µg·h/mL | Cmax ([1]; single oral dose 25 mg, moderate hepatic impairment group, read-out: Cmax, geometric least squares mean): 0.362 µg/mL | Cmax,u, geometric least squares mean ([1]; free drug, single oral dose 25 mg, healthy group): 0.0197 µg/mL | Cmax,u ([1]; free drug, single oral dose 25 mg, healthy group, arithmetic mean): 0.021 µg/mL | Cmax,u ([1]; free drug, single oral dose 25 mg, mild hepatic impairment group (N=7), arithmetic mean): 0.0288 µg/mL | Cmax,u, geometric least squares mean ([1]; free drug, single oral dose 25 mg, moderate hepatic impairment group): 0.03 µg/mL | Cmax,u ([1]; free drug, single oral dose 25 mg, moderate hepatic impairment group, arithmetic mean): 0.0307 µg/mL | increase of geometric mean of AUCinf compared with healthy subjects ([1]; mild hepatic impairment group): ~17% | increase of geometric mean of AUClast compared with healthy subjects ([1]; mild hepatic impairment group): approximately 18% | increase of geometric mean of Cmax compared with healthy subjects ([1]; mild hepatic impairment group): approximately 20% | effect of mild hepatic impairment on clearance and exposure level ([1]; mild hepatic impairment vs healthy subjects): no significant effect | increase of geometric mean of AUCinf compared with healthy subjects [1, 7]: ~83% | increase of geometric mean of AUClast compared with healthy subjects [1, 7]: ~83% | increase of geometric mean of Cmax compared with healthy subjects [1, 7]: approximately 18% | increase of geometric mean of free AUCinf compared with the healthy group [1, 7]: ~137% | increase of geometric mean of free AUClast compared with the healthy group [1, 7]: ~137% | clearance and exposure level in moderate hepatic impairment ([1]; moderate hepatic impairment vs healthy subjects): the drug clearance was decreased and the exposure level was increased | increase of AUC of free drug compared with healthy subjects ([1]; moderate hepatic impairment, conclusion, AUC not further specified): ~137% | absorption after oral administration ([1]; single oral dose 25 mg): rapidly absorbed | CL/F [1, 4]: 13.7 L/h | CL/F [1, 5]: 11.8 L/h | CL/F [1, 6]: 7.43 L/h | fraction unbound ([2]; free drug percentage in plasma, healthy group, arithmetic mean, read-out: fu): 0.0646 | fraction unbound ([2]; free drug percentage in plasma, mild hepatic impairment group (N=7), arithmetic mean, read-out: fu): 0.0719 | fraction unbound ([2]; free drug percentage in plasma, moderate hepatic impairment group, arithmetic mean, read-out: fu): 0.0832 | fraction unbound ([2]; healthy group, read-out: free drug percentage (fu), geometric mean): 0.0639 | fraction unbound ([2]; mild hepatic impairment group, read-out: free drug percentage (fu), geometric mean): 0.0712 | fraction unbound ([2]; moderate hepatic impairment group, read-out: free drug percentage (fu), geometric mean): 0.0829 | number of AEs ([3]; all subjects): 20 | number of TEAEs ([3]; all subjects): 18 | number of TEAEs considered possibly related to the study drug ([3]; all subjects): 10 | subjects with TEAEs considered possibly related to the study drug ([3]; all subjects): 25.0% | SAEs, death, or significant TEAEs ([3]; all subjects, during the study): no SAEs, death, or significant TEAEs | subjects who experienced TEAEs ([3]; all subjects, mild in most cases): 33.3% | subjects who experienced AEs ([3]; all subjects, single oral dose 25 mg): 33.3% | subjects who experienced AEs ([3]; healthy group): No subjects | number of AEs ([3]; mild hepatic impairment group): 13 | number of TEAEs considered possibly related to the study drug ([3]; mild hepatic impairment group): 8 | subjects who experienced AEs ([3]; mild hepatic impairment group): 62.5% | subjects with TEAEs considered possibly related to the study drug ([3]; mild hepatic impairment group): 50.0% | number of AEs [3, 7]: 7 | number of TEAEs considered possibly related to the study drug [3, 7]: 2 | subjects who experienced AEs [3, 7]: 37.5% | subjects with TEAEs considered possibly related to the study drug [3, 7]: 25.0% | safety and tolerability ([3]; single oral dose, subjects with mild and moderate hepatic impairment): safe and well tolerated
